Experimental data as given in US20030124643A1, “Method and kit forrapid concurrent identification and antimicrobial susceptibility testing of microorganisms from broth culture” (priority 2001, published 2003).

Key:
E. coli = test: Kit plate disk-quarter diffusion AST, mixed culture; assay type: cell-based; settings: mixed culture with Staph. aureus, Cephalothin chamber 70', region confirmed by gram stain, FIG. 37
Text: (§1) FIGS. 37A to 37C illustrates the growth of two microorganisms, Staph. aureus and E. coli, on the same preferred embodiment kit plate. FIGS. 37B and 37C are two different views of an enlargement of the AST test chambers (67′-70′ and 72′-75′). FIG. 37B viewed with back lighting. FIG. 37C viewed with front lighting. Two AST test chambers are featured in these figures: Mueller Hinton agar plus antimicrobial Cephalothin chamber 70′ and Mueller Hinton agar plus antimicrobial Enrofloxicin chamber 73′. Two margins are observable in each chamber: E coli & cephalothin margin 180 and Staph. aureus & cephalothin margin 181 for Cephalothin chamber 70′; and Staph. aureus & Enrofloxicin margin 182 and E. coli & Enrofloxicin margin 183 for Enrofloxicin chamber 73′. The region 176A is between the E. coli margin 180 and Staph. aureus margin 181 in Cephalothin chamber 70′. The region 178A is between the Staph. aureus margin 182 and the E. coli margin 183 in Enrofloxicin chamber 73′. Illustrated in FIG. 38 are two gram stains 176B and 178B of a sample from regions 176A and 178A respectively.
(§2) […] of this dilution is added per chamber. FIG. 17 illustrates the first chamber of the top two rows inoculated using dilution 140. Eighty micro liters of dilution 140 is added per chamber to the ten upper test chambers. […]

Staph. aureus = test: as above; assay type: cell-based; settings: mixed culture with E. coli, Enrofloxicin chamber 73', region confirmed by gram stain, FIG. 37
Text: as §1, §2

SMILES | AST result in growth region 176A, between margins 180 and 181 (E. coli) | AST result in growth region 178A, between margins 182 and 183 (Staph. aureus)
CC(=O)OCC1=C(C(=O)O)N2C(=O)[C@@H](NC(=O)Cc3cccs3)[C@H]2SC1 [Cephalothin] | resistance | –
CCN1CCN(c2cc3c(cc2F)c(=O)c(C(=O)O)cn3C2CC2)CC1 [Enrofloxicin] | – | resistance
